From ChEMBL document CHEMBL6127134, “Light-Activable Inhibitor Overcomes Antimicrobial Resistance and Regulates Antibacterial Activity” (J Med Chem, 2024)
In brackets after ≈: the same amount, converted by molar mass. Activity calls are given as the source filed them. No cut-off for these calls is given here.

Legend:
Bacteria [1] = assay: Inhibition of TEM-1 activity (unknown origin); conditions: concentration not given here
Escherichia coli [2] = assay: Antibacterial activity against drug susceptible Escherichia coli; type: functional
Escherichia coli [3] = assay: Antibacterial activity against drug resistant Escherichia coli; type: functional
[4] = Photoactivation of the compound assessed as photo conversion ratio by measuring SU release under 5 mins of blue light irradiation by HPLC analysis
Escherichia coli [5] = assay: Antibiofilm activity against drug susceptible Escherichia coli incubated for 48 hrs in presence of CFS by crystal violet staining based microplate reader assay; type: functional, organism-based
Escherichia coli [6] = assay: Synergistic antibacterial activity against cefoperazone sodium resistant Escherichia coli assessed as decrease in CFS MIC at 20 ug/ml incubated for 8 hrs (reference value: 285 ug/ml); type: functional; conditions: dose 20 µg/ml
Bacteria [7] = assay: Inhibition of TEM-1 activity (unknown origin) at 10 ug/ml using nitrocefin as substrate preincubated for 30 mins followed by 485 nm light irradiation and substrate addition by UV-Vis spectrometer assay; conditions: dose 10.0 µg/ml
Escherichia coli [8] = assay: Bactericidal activity against drug resistant Escherichia coli after repeated drug exposure for three generation and measured on fourth generation in presence of CFS by plate count method; type: functional
Escherichia coli [9] = assay: Bactericidal activity against drug resistant Escherichia coli in presence of CFS by plate count method; type: functional
[10] = Drug uptake in Escherichia coli assessed as increase in red fluorescence at 1 mg/ml incubated for 15 mins under dark condition by acridine orange staining based confocal laser scanning microscopy analysis; type: ADME; conditions: 0.25 h
[11] = Drug uptake in Escherichia coli assessed as increase in red fluorescence at 1 mg/ml after 1 mins under 405 nm light irradiation by acridine orange staining based confocal laser scanning microscopy analysis; type: ADME
Escherichia coli [12] = assay: Antibiofilm activity against drug susceptible Escherichia coli incubated for 48 hrs by crystal violet staining based microplate reader assay; type: functional, organism-based
Escherichia coli [13] = assay: Antibacterial activity against CFS resistant Escherichia coli assessed as change in bacterial cell wall by SEM analysis; type: functional, organism-based
Escherichia coli [14] = assay: Bactericidal activity against CFS susceptible Escherichia coli incubated under dark condition by AO/EB staining based confocal laser scanning microscopy assay; type: functional, organism-based
Escherichia coli [15] = assay: Antibacterial activity against cefoperazone sodium susceptible Escherichia coli incubated for 8 hrs; type: functional
Escherichia coli [16] = assay: Bactericidal activity against CFS susceptible Escherichia coli incubated under light irradiation by AO/EB staining based confocal laser scanning microscopy assay; type: functional, organism-based
Escherichia coli [17] = assay: Antibacterial activity against cefoperazone sodium resistant Escherichia coli assessed as elimination of resistant bacteria incubated for 8 hrs; type: functional
Escherichia coli [18] = assay: Antibacterial activity against cefoperazone sodium resistant Escherichia coli incubated for 8 hrs; type: functional
Escherichia coli [19] = assay: Bactericidal activity against CFS resistant Escherichia coli incubated under dark condition by AO/EB staining based confocal laser scanning microscopy assay; type: functional, organism-based
Escherichia coli [20] = assay: Antibiofilm activity against drug resistant Escherichia coli incubated for 48 hrs by crystal violet staining based microplate reader assay; type: functional
Escherichia coli [21] = assay: (§1) Synergistic antibacterial activity against CFS resistant Escherichia coli assessed as increase in bacterial killing in presence of CFS preincubated for 20 mins prior to 405 nm LED laser irradiation for 5 mins and cocultured for 6 hrs under static condition and measured after 24 hrs by plate count method; type: functional, organism-based; conditions: time 1825.0 min
[22] = Solubility of compound in water; type: physicochemical
Escherichia coli [23] = assay: Synergistic antibacterial activity against cefoperazone sodium resistant Escherichia coli assessed as decrease in CFS MIC at 132 ug/ml preincubated for 20 mins prior to 405 nm LED laser irradiation for 5 mins and cocultured for 6 hrs under static condition and measured after 24 hrs by plate count method (reference value: 285 ug/ml); type: functional; conditions: light or radiation study, 30.42 h, dose 132 µg/ml, time 1825 min
Escherichia coli [24] = assay: Synergistic bactericidal activity against CFS resistant Escherichia coli incubated under dark condition in presence of CFS by AO/EB staining based confocal laser scanning microscopy assay; type: functional, organism-based
Bacteria [25] = assay: Inhibition of TEM-1 activity (unknown origin) at 65 ug/ml using nitrocefin as substrate under absence of light irradiation by UV-Vis spectrometer assay; conditions: dose 65.0 µg/ml
Bacteria [26] = assay: Inhibition of TEM-1 activity (unknown origin) at 65 ug/ml using nitrocefin as substrate preincubated for 30 mins followed by 485 nm light irradiation and substrate addition measured after 2 mins by UV-Vis spectrometer assay; conditions: dose 65.0 µg/ml, time 32.0 min
Bacteria [27] = assay: Inhibition of TEM-1 activity (unknown origin) at 65 ug/ml using nitrocefin as substrate preincubated for 30 mins followed by 485 nm light irradiation and substrate addition by UV-Vis spectrometer assay; conditions: dose 65.0 µg/ml
Escherichia coli [28] = assay: Synergistic antibacterial activity against CFS susceptible Escherichia coli assessed as increase in bacterial killing incubated under dark condition in presence of CFS; type: functional, organism-based
Escherichia coli [29] = assay: Synergistic bactericidal activity against CFS resistant Escherichia coli incubated under light irradiation in presence of CFS by AO/EB staining based confocal laser scanning microscopy assay; type: functional, organism-based
Escherichia coli [30] = assay: Antibiofilm activity against Escherichia coli assessed as reduction in bacterial cell density after 48 hrs under light irradiation in presence of CFS by FITC-ConA staining based confocal laser scanning microscopy analysis; type: functional, organism-based
Escherichia coli [31] = assay: Antibiofilm activity against Escherichia coli assessed as reduction in exo-polysaccharide content after 48 hrs under light irradiation in presence of CFS by FITC-ConA staining based confocal laser scanning microscopy analysis; type: functional, organism-based
Escherichia coli [32] = assay: Bactericidal activity against drug resistant Escherichia coli after repeated drug exposure for multiple generation under light irradiation in presence of CFS by plate count method; type: functional, organism-based
Escherichia coli [33] = assay: Synergistic bactericidal activity against CFS susceptible Escherichia coli incubated under dark condition in presence of CFS by AO/EB staining based confocal laser scanning microscopy assay; type: functional, organism-based
Escherichia coli [34] = assay: Downregulation of beta-lactamase expression in Escherichia coli measured after eighth generation in presence of CFS under light irradiation condition by ELISA; type: functional
Escherichia coli [35] = assay: Antibiofilm activity against drug resistant Escherichia coli incubated for 48 hrs under light irradiation in presence of CFS by crystal violet staining based microplate reader assay; type: functional
[36] = Stability of compound under ambient light condition measured after 72 hrs; type: physicochemical
Escherichia coli [37] = assay: Synergistic antibacterial activity against Escherichia coli incubated under light irradiation in presence of AMP; type: functional, organism-based
Escherichia coli [38] = assay: Antibiofilm activity against drug resistant Escherichia coli incubated for 48 hrs in presence of CFS by crystal violet staining based microplate reader assay; type: functional
Escherichia coli [39] = assay: Synergistic bactericidal activity against CFS susceptible Escherichia coli incubated under light irradiation in presence of CFS by AO/EB staining based confocal laser scanning microscopy assay; type: functional, organism-based
Escherichia coli [40] = assay: Synergistic antibacterial activity against Escherichia coli incubated under dark condition in presence of AMP; type: functional, organism-based
[41] = Photoactivation of the compound assessed as encapsulated SU release under 405 nm light irradiation by HPLC analysis
Escherichia coli [42] = assay: as §1, with “against cefoperazone sodium” for “against CFS”, “as elimination of resistant bacteria” for “as increase in bacterial killing”; type: functional; conditions: time 1825 min; 30.42 h
Escherichia coli [43] = assay: Synergistic antibacterial activity against Escherichia coli assessed as appearance of incomplete cell wall under light irradiation in presence of CFS; type: functional, organism-based
Escherichia coli [44] = assay: Synergistic antibacterial activity against cefoperazone sodium resistant Escherichia coli assessed as elimination of resistant bacteria incubated for 8 hrs in presence of CFS; type: functional
Bacteria [45] = assay: Inhibition of TEM-1 activity (unknown origin) at 65 ug/ml using nitrocefin as substrate preincubated for 30 mins followed by 485 nm light irradiation and substrate addition measured after 5 mins by UV-Vis spectrometer assay; conditions: dose 65.0 µg/ml, time 35.0 min
HeLa = assay: Cytotoxicity against human HeLa cells assessed as viable cells after 200 ug/ml incubated for 24 hrs by MTT assay; type: functional; conditions: read-out: Activity
Escherichia coli [46] = assay: Synergistic antibacterial activity against Escherichia coli assessed as appearance of shrunken cell wall under light irradiation in presence of CFS; type: functional, organism-based

Q: Which inhibition (Bacteria [1]) does the source give for `CC1(C)C(C(=O)OCCCOC(=O)Cc2ccccc2[N+](=O)[O-])N2C(=O)CC2S1(=O)=O` (stereo not given) here?
A: The inhibition was 10.6%.

Q: Which results are given for `CC1(C)S[C@@H]2[C@H](NC(=O)[C@H](N)c3ccccc3)C(=O)N2[C@H]1C(=O)O` [AMPICILLIN]?
A: MIC (Escherichia coli [2]): 8 µg/mL (≈ 22.9 µM); MIC (Escherichia coli [3]): 150 µg/mL (≈ 429 µM)

Q: With `CC1(C)C(C(=O)OCCc2ccccc2[N+](=O)[O-])N2C(=O)CC2S1(=O)=O` (stereo not given) as the compound, how does the Activity [4] read?
A: The Activity was 25%.

Q: And the inhibition (Bacteria [1])?
A: The inhibition was 9.03%.

Q: Which Activity (Escherichia coli [5]) does the source give for `CC1(C)[C@H](C(=O)O)N2C(=O)C[C@H]2S1(=O)=O` [SULBACTAM] here?
A: The Activity was “Active”.

Q: And the MIC (Escherichia coli [6])?
A: Its MIC is 14 µg/mL.

Q: And the inhibition (Bacteria [7])?
A: Its inhibition is 93.3%.

Q: What about the Activity (Escherichia coli [8]) of the same compound?
A: The Activity was 45%.

Q: What about the Activity (Escherichia coli [9]) of the same compound?
A: Its Activity is 98%.

Q: Which results are given for `CCN(CC)c1ccc2c(-c3ccccc3COCC(C)c3cc(-c4ccc(OCCOCCOCCOCCn5nncc5CCCO[C@H]5O[C@H](CO)[C@H](O)[C@H](O)[C@H]5O)cc4)ccc3[N+](=O)[O-])c3ccc(=[N+](CC)CC)cc-3oc2c1.Cl` (stereo not given in full)?
A: Drug uptake [10]: Active; Drug uptake [11]: Active

Q: Which Activity (Escherichia coli [12]) does the source give for `CCN1CCN(C(=O)N[C@@H](C(=O)N[C@@H]2C(=O)N3C(C(=O)[O-])=C(CSc4nnnn4C)CS[C@H]23)c2ccc(O)cc2)C(=O)C1=O.[Na+]` [CEFOPERAZONE SODIUM] here?
A: Its Activity is “Active”.

Q: And the Activity (Escherichia coli [13])?
A: Its Activity is “inactive”.

Q: And the Activity (Escherichia coli [14])?
A: The Activity was “Active”.

Q: And the MIC (Escherichia coli [15])?
A: The MIC was 14 µg/mL.

Q: And the Activity (Escherichia coli [16])?
A: The Activity was “Active”.

Q: What about the Activity (Escherichia coli [17]) of the same compound?
A: The Activity was 54.2%.

Q: And the MIC (Escherichia coli [18])?
A: Its MIC is 285 µg/mL.

Q: What about the Activity (Escherichia coli [19]) of the same compound?
A: Its Activity is “inactive”.

Q: And the Activity (Escherichia coli [20])?
A: The Activity was ~50%.

Q: With `CC(COC(=O)C1N2C(=O)CC2S(=O)(=O)C1(C)C)c1cc(-c2ccc(OCCOCCOCCOCCn3nncc3CCCO[C@H]3O[C@H](CO)[C@H](O)[C@H](O)[C@H]3O)cc2)ccc1[N+](=O)[O-]` (stereo not given in full) as the compound, how does the Activity (Escherichia coli [5]) read?
A: The Activity was “Active”.

Q: And the Activity (Escherichia coli [21])?
A: Its Activity is “Active”.

Q: What about the solubility [22] of the same compound?
A: The solubility was ≤ 1000 µM.

Q: What about the MIC (Escherichia coli [23]) of the same compound?
A: The MIC was 14 µg/mL.

Q: What about the Activity (Escherichia coli [24]) of the same compound?
A: Its Activity is “inactive”.

Q: What about the inhibition (Bacteria [25]) of the same compound?
A: Its inhibition is 7.26%.

Q: And the inhibition (Bacteria [26])?
A: The inhibition was 84.7%.

Q: What about the inhibition (Bacteria [27]) of the same compound?
A: Its inhibition is “Active”.

Q: What about the Activity (Escherichia coli [28]) of the same compound?
A: The Activity was “Active”.

Q: What about the Activity (Escherichia coli [29]) of the same compound?
A: Its Activity is “Active”.

Q: And the Activity (Escherichia coli [30])?
A: Its Activity is “Active”.

Q: What about the Activity (Escherichia coli [31]) of the same compound?
A: The Activity was “Active”.

Q: And the Activity (Escherichia coli [32])?
A: Its Activity is “Active”.

Q: And the Activity (Escherichia coli [33])?
A: The Activity was “inactive”.

Q: And the Activity (Escherichia coli [34])?
A: Its Activity is “Active”.

Q: What about the Activity (Escherichia coli [35]) of the same compound?
A: Its Activity is ~90%.

Q: And the Stability [36]?
A: The Stability was “Stable”.

Q: What about the Activity (Escherichia coli [37]) of the same compound?
A: The Activity was “Active”.

Q: What about the Activity (Escherichia coli [38]) of the same compound?
A: The Activity was ~50%.

Q: And the Activity (Escherichia coli [39])?
A: Its Activity is “Active”.

Q: And the Activity [4]?
A: The Activity was 62%.

Q: And the Activity (Escherichia coli [40])?
A: The Activity was “Active”.

Q: What about the Activity [41] of the same compound?
A: Its Activity is ~ 60%.

Q: What about the Activity (Escherichia coli [42]) of the same compound?
A: The Activity was 96.01%.

Q: What about the Activity (Escherichia coli [43]) of the same compound?
A: Its Activity is “Active”.

Q: What about the Activity (Escherichia coli [44]) of the same compound?
A: Its Activity is 54.7%.

Q: And the inhibition (Bacteria [45])?
A: Its inhibition is 89.1%.

Q: What about the viability at 200 µg/mL (HeLa) of the same compound?
A: The viability at 200 µg/mL was > 90%.

Q: And the Activity (Escherichia coli [46])?
A: The Activity was “Active”.
